Measurements reported in patent US5567704A, “R-enatiomerically pure hydroxylated xanthine compounds to treat baldness” (priority 1995, dated 1996).

How the values were obtained:
murine B-cell = assay: B-cell proliferation stimulated by anti-mu antibody and/or IL-4; format: cell-based; details: anti-mu antibody crosslinked and/or IL-4, FIG. 2
Description: A B-cell proliferation assay determines the effect of the inventive compounds on inhibiting proliferation of stimulated B-cells, stimulated by an anti-mu antibody (40 μg/ml), IL-4 or PMA (2.5 nM). Ramos B-cell tumor cells or murine splenocytes can be incubated with a stimulating agent, an inventive compound and tritiated thymidine to measure inhibition of cell proliferation caused by the stimulating agent.

Balb/C mice = assay: 5-fluorouracil (5-FU) induced bone marrow suppression in mice; format: in vivo, mouse
Description: This example illustrates the effect of CT1501R on 5-fluorouracil (5-FU) induced bone marrow suppression in mice. We determined if CT1501R influenced the time required for hematopoietic reconstitution following cytotoxic chemotherapy in a murine model. Female Balb/C mice (VAF, Charles River Laboratories, 6-8 wks of age approximately 17.3-18.5 g) were treated with 5-FU at adose of 200 mg/kg intraperitoneally (i.p.) in experiment 1 or […] in experiment 2. CT1501R or vehicle control was given at a dose of 100 μg/kg i.p. bid starting 1 day prior to 5-FU and was continued until the last mice were sacrificed on day 13 in experiment 1 and day 15 in experiment 2. Controls included mice treated with CT1501R or vehicle without 5-FU. Mice (4 per group) were sacrificed starting 2 days after 5-FU by cardiac puncture under halothane anesthesia followed by cervical dislocation and had total white blood cell counts and differential counts performed. Platelet counts were performed using phase-contrast microscopy in duplicate. Femurs were harvested and the number of granulocyte-macrophage colony forming cells (CFU-GM) per femur were measured using a standard assay (Terry Fox Laboratories, Vancouver, British Columbia) using pokeweed mitogen spleen conditioned medium as the growth factor. Each femur was plated separately in triplicate and the mean and means for each experimental point was calculated. Standard deviations used for statistical analysis were deviations of the mean number of colonies measured for each femur.
Experiment 2 was similar to experiment 1 with the following exceptions: (1) the dose of 5-FU was decreased to 185 mg/kg; (2) daily blood draws were performed between days 10 and 15; and (3) platelet counts were performed.

[1] = test system: TNF-α release from IL-1α activated PEC; assay: TNF-α release from IL-1α-activated peritoneal macrophages (ELISA); format: cell-based, murine; details: Mus musculus, Peritoneal macrophage, 50 ng/ml IL-1α, 24, 48 or 72 hrs, FIG. 20, read-out: inhibition of induced levels of TNF-α
Description: (§1) Murine peritoneal exudate cell macrophages (PEC) were isolated by perfusion of mouse peritoneum and plated into 96-well trays at 5×10^5 cells per well. Cells were stimulated with 5 μg/ml Salmonella abortus equi -derived endotoxin (LPS; Sigma Chemical Co., L-1887) or […] IL-1α (Genzyme; Cambridge, Mass.) with or without the addition of CT1501R added to the cultures one hour prior to addition of the stimulus. At various times thereafter, supernatants were removed and levels of either TNF-α or IL-1α were assayed using commercial 96-well microtiter immunoassay kits (Genzyme; TNF; Endogen, Boston, Mass.; IL-1α) according to manufacturer's specifications. For the adhesion studies, early passage human umbilical vein endothelial cells (HUVEC) were obtained. from commercial suppliers (Clonetics, San Diego, Calif. or Cell Systems, Seattle, Wash.) and cultured in defined, Hepes buffered, serum free medium (Cell Systems, cat 301-180) supplemented with acidic FGF (Cell Systems cat 401-111). 4000 cells were plated into each well of a 96-well microtiter plate and allowed to incubate for 72 hrs at 37° C. […] After addition of […] Hanks Balanced Salt Solution (HBSS), the microtiter plate was then analyzed on a Millipore Cytofluor fluorescent plate reader (excitation 488 nm; emission 525 nm). […]

U937 cells = assay: adhesion of IL-1α activated U937 cells to HUVEC; format: cell-based, human; details: 250 μM pre-treatment of U937 cells, FIG. 22
Description: as §1

SMILES: C[C@@H](O)CCCCn1c(=O)c2c(ncn2C)n(C)c1=O [CT1501R, (R)-1-(5-hydroxyhexyl)-3,7-dimethylxanthine]
- inhibition of B-cell proliferation (murine B-cell): inhibited B-cell proliferation
- mouse survival, Kaplan-Meier plot (Balb/C mice; 5-FU treated mice, FIG. 14): improved survival
- rise in ANC and CFU-GM/femur associated with vehicle injections (Balb/C mice; animals that did not receive 5-FU): prevented both the rise in ANC and rise in CFU-GM/femur
- increase in the number of CFU-GM/femur compared to control animals (Balb/C mice; during hematopoietic recovery): approximately two-fold
- CFU-GM/femur (Balb/C mice; experiment 1, day 13, vs vehicle control and day 0 animals): significantly more CFU-GM/femur on day 13
- mean ±SD ANC (Balb/C mice; experiment 1, day 13 after 5-FU): 440±17 /mm^3
- WBC of 5-FU treated mice (Balb/C mice; experiment 1, days 6 and 10): significantly lower in vehicle treated controls than in CT1501R treated mice
- number of cells per femur (Balb/C mice; experiment 2): increased during hematopoietic recovery compared to control animals
- WBC (Balb/C mice; experiment 2, FIG. 10): significantly higher WBC's
- platelet count nadir and rate of recovery (Balb/C mice; experiment 2, FIG. 11): increased compared to vehicle control animals
- neutrophil recovery (Balb/C mice; experiment 2, FIG. 12): accelerated
- WBC and ANC (Balb/C mice; mice without 5-FU, i.p. bid): remained within 1 SD of control values
- adverse effects (Balb/C mice; mice without 5-FU, i.p. bid): no apparent adverse effects
- inhibition at 250 µM [1]: 50 to 70%
- IL-1α mediated increase in adhesion of U937 cells to HUVEC (U937 cells): effectively blocked the IL-1α mediated increase in adhesion to HUVEC to near background levels
